Test [1] addresses T1, APOL1 G2 (Homo sapiens, UniProt O14791, DEL388-389).
T1 construct: expressed in transfected cells; host or cells: HEK293/T-REx APOL1 G2 clone #2, doxycycline-inducible
T1 sequence (O14791 with tags, fused parts or gaps DEL388-389): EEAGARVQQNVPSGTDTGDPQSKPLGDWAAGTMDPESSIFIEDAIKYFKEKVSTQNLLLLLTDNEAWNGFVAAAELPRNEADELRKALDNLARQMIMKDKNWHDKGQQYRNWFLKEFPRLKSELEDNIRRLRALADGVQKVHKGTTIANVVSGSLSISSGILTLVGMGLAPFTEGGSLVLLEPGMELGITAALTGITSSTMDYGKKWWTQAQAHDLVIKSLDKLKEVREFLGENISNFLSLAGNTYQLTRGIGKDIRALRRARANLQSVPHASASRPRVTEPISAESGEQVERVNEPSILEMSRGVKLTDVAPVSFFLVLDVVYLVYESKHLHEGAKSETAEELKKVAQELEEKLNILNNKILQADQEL
The test can be described thus: APOL1 G2 FLIPR calcium influx assay (HEK T-REx/GCaMP6f/APOL1 G2 K6.3 cells). The format is cell-based. Particulars: HEK293 clone expressing GCaMP6f, doxycycline-induced APOL1 G2; prevention of calcium influx; geometric mean of at least 2 assay runs. In short, it runs like this: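 HEK293 clone stably expressing GCaMP6f, APOL1 G2 induced with doxycycline for 6 h; compounds (duplicate 8-point dose response) preincubated 10 min at room temperature in Ca2+-free Tyrode's buffer, pH 7.4. Ca2+ added to 5 mM final, influx read on FLIPR; AC50 is geometric mean of ≥2 runs.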

Test [2] addresses T1, APOL1 G2. The test is described as follows: APOL1 G2 HEK293 rescue of cell death caused by overexpression of APOL1 (CellTiter-Glo). The class given is cell-based. Particulars: HEK293/T-REx APOL1 G2 clone #2, doxycycline induction, 17 hours, CellTiter-Glo luminescence; reversal of cell death; geometric mean of at least 2 assay runs. A digest of the protocol: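 Doxycycline (6 ng/mL)-induced HEK293/T-REx APOL1 G2 clone seeded at 5,000 cells/well with compound in duplicate 8-point 3-fold series (0.5% DMSO), 17 h at 37 °C. CellTiter-Glo luminescence; EC50 from four-parameter logistic fit, geometric mean of ≥2 runs.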
A general note: Cellular ATP, detected with luciferase, serves as a proxy for viable cell number.

The values below come from patent publication US20260055083A1, “APOL1 INHIBITORS AND METHODS OF USE” (Maze Therapeutics, Inc., priority 2022, published 2026).

On to `Cc1cc(OC[C@@H]2CN(CCc3cc(Cl)cc(C#N)c3)CCN2)ccc1S(C)(=O)=O` [Compound 112, 3-chloro-5-{2-[(3S)-3-[(4-methanesulfonyl-3-methylphenoxy)methyl]piperazin-1-yl]ethyl}benzonitrile], for which the AC50 at APOL1 G2 [1] stood at 409 nM. For the same compound, the EC50 on APOL1 G2 [2] worked out at 296 nM.
In the case of `C[C@@H]1C[C@H](COc2ccc(S(C)(=O)=O)cc2)CN1C1CCc2c(Cl)cccc2C1` (stereo partly drawn) [Compound 88, (2R,4S)-1-(5-chloro-1,2,3,4-tetrahydronaphthalen-2-yl)-4-[(4-methanesulfonylphenoxy)methyl]-2-methylpyrrolidine], the AC50 on APOL1 G2 [1] turned out to be 843 nM. Moreover, the concentration for a half-maximal effect (EC50) at APOL1 G2 [2] is 215 nM.
In the same order, the values of `Cc1c(C#N)cc(Cl)cc1CCN1C[C@@H](CO)[C@H](COc2ccc(S(C)(=O)=O)cc2)C1` [Compound 23, 5-chloro-3-{2-[(3S,4S)-3-(hydroxymethyl)-4-[(4-methanesulfonylphenoxy)methyl]pyrrolidin-1-yl]ethyl}-2-methylbenzonitrile] are 392 nM and 309 nM.
As for `C[C@@H]1C[C@H](COc2ccc(S(C)(=O)=O)cc2)CN1C1CCc2c(C#N)cc(Cl)cc2C1` (single isomer, unassigned) [Compound 7, (6R or 6S)-3-chloro-6-[(2R,4S)-4-[(4-methanesulfonylphenoxy)methyl]-2-methylpyrrolidin-1-yl]-5,6,7,8-tetrahydronaphthalene-1-carbonitrile], the AC50 at APOL1 G2 [1] was determined as 1540 nM. The EC50 on APOL1 G2 [2] stood at 195 nM.
Turning to `CC(Cc1cc(Cl)cc(C#N)c1)N1C[C@@H](COc2ccc(S(C)(=O)=O)cc2)[C@H](C)C1` (stereo partly drawn) [Compound 17, 3-chloro-5-[2-[(3S,4S)-3-[(4-methanesulfonylphenoxy)methyl]-4-methylpyrrolidin-1-yl]propyl]benzonitrile], at APOL1 G2 [1], the AC50 is 380 nM. Also, the concentration for a half-maximal effect (EC50) at APOL1 G2 [2] was 527 nM.
In the same order, the values of `C[C@@H]1CN(CCc2cccc(C#N)c2)C[C@H]1COc1ccc(S(C)(=O)=NCCS(C)(=O)=O)cc1` (stereo partly drawn) [Compound 68, 3-{2-[(3S,4S)-3-[(4-{[(2-methanesulfonylethyl)imino](methyl)oxo-λ^6-sulfanyl}phenoxy)methyl]-4-methylpyrrolidin-1-yl]ethyl}benzonitrile] are 708 nM and 366 nM.
As to `C[C@@H]1C[C@H](COc2ccc(S(C)(=O)=O)cc2)CN1C1CCc2c(C#N)cccc2C1` (single isomer, unassigned) [Compound 134, (6R or 6S)-6-[(2R,4S)-4-[(4-methanesulfonylphenoxy)methyl]-2-methylpyrrolidin-1-yl]-5,6,7,8-tetrahydronaphthalene-1-carbonitrile], at APOL1 G2 [1], the AC50 was 601 nM. In addition, at APOL1 G2 [2], the EC50 is 292 nM.
For `C[C@@H]1C[C@H](COc2ccc(S(=O)(=O)CCCS(C)(=O)=O)cc2)CN1C1CCc2ccc(Cl)cc2C1` (stereo partly drawn) [Compound 52, (2R,4S)-1-[7-chloro-1,2,3,4-tetrahydronaphthalen-2-yl]-4-{[4-(3-methanesulfonylpropanesulfonyl)phenoxy]methyl}-2-methylpyrrolidine], the AC50 on APOL1 G2 [1] amounted to 1020 nM. Further, the EC50 at APOL1 G2 [2] was determined as 86.9 nM.
In the same order, the values of `C[C@@H]1CN(CCc2cc(C#N)cc(C#N)c2)C[C@H]1COc1ccc(S(C)(=O)=O)nc1` [Compound 74, 5-{2-[(3S,4S)-3-{[(6-methanesulfonylpyridin-3-yl)oxy]methyl}-4-methylpyrrolidin-1-yl]ethyl}benzene-1,3-dicarbonitrile] are 479 nM and 665 nM.
Taken in the same sequence, the figures for `CC(=O)N1CC(S(=O)(=O)c2ccc(OC[C@@H]3CN(CCc4cccc(Cl)c4)CCN3)cc2)C1` [Compound 109, 1-[3-(4-{[(2S)-4-[2-(3-chlorophenyl)ethyl]piperazin-2-yl]methoxy}benzenesulfonyl)azetidin-1-yl]ethan-1-one] were 746 nM and 224 nM.
In the same order, the values of `C[C@@H]1C[C@H](COc2ccc(S(=O)(=O)CCO)cc2)CN1C1CCc2ccc(C#N)cc2C1` (single isomer, unassigned) [Compound 60, (7S or 7R)-7-[(2R,4S)-4-{[4-(2-hydroxyethanesulfonyl)phenoxy]methyl}-2-methylpyrrolidin-1-yl]-5,6,7,8-tetrahydronaphthalene-2-carbonitrile] are 477 nM and 37 nM.
On to `CS(=O)(=O)c1ccc(OCC2C[C@@H](CO)N(CCc3cccc(Cl)c3)C2)cc1` (single isomer, unassigned) [Compound 123, [(2S,4S or 4R)-1-[2-(3-chlorophenyl)ethyl]-4-[(4-methanesulfonylphenoxy)methyl]pyrrolidin-2-yl]methanol], for which the AC50 on APOL1 G2 [1] amounted to 201 nM. The EC50 at APOL1 G2 [2] amounted to 393 nM.
Taken in the same sequence, the figures for `C[C@@H]1C[C@H](COc2ccc(S(=O)(=O)CCS(C)(=O)=O)cc2)CN1C1CCc2ccc(Cl)cc2C1` (single isomer, unassigned) [Compound 50, (2R,4S)-1-[(2S or 2R)-7-chloro-1,2,3,4-tetrahydronaphthalen-2-yl]-4-{[4-(2-methanesulfonylethanesulfonyl)phenoxy]methyl}-2-methylpyrrolidine] were 1070 nM and 346 nM.
With `CC(C(O)c1cc(Cl)cc(C#N)c1)N1C[C@@H](COc2ccc(S(C)(=O)=O)cc2)[C@H](C)C1` (single isomer, unassigned) [Compound 103, 3-chloro-5-((1S,2S or 1R,2R)-1-hydroxy-2-((3S,4S)-3-methyl-4-((4-(methylsulfonyl)phenoxy)methyl)pyrrolidin-1-yl)propyl)benzonitrile], the AC50 at APOL1 G2 [1] amounted to 905 nM. In addition, the EC50 on APOL1 G2 [2] amounted to 655 nM.
Consider `C[C@@H]1CN(CC(CO)c2cc(Cl)cc(C#N)c2)C[C@H]1COc1ccc(S(C)(=O)=O)cc1` (single isomer, unassigned) [Compound 128, 3-chloro-5-[(2S or 2R)-1-hydroxy-3-[(3S,4S)-3-[(4-methanesulfonylphenoxy)methyl]-4-methylpyrrolidin-1-yl]propan-2-yl]benzonitrile], for which the AC50 on APOL1 G2 [1] was 1510 nM. Moreover, the 50% effective concentration (EC50) at APOL1 G2 [2] was found to be 711 nM.
For the compound `C[C@@H]1C[C@H](COc2ccc(S(=O)(=O)CCCS(C)(=O)=O)cc2)CN1C1CCc2c(C#N)cccc2C1` (stereo partly drawn) [Compound 40, 6-[(2R,4S)-4-{[4-(3-methanesulfonylpropanesulfonyl)phenoxy]methyl}-2-methylpyrrolidin-1-yl]-5,6,7,8-tetrahydronaphthalene-1-carbonitrile], at APOL1 G2 [1], the half-maximal activity concentration (AC50) is 534 nM. Also, on APOL1 G2 [2], the EC50 worked out at 74.6 nM.
In the same order, the values of `C[C@@H]1C[C@H](COc2ccc(S(=O)(=O)CCO)cc2)CN1C1CCc2c(C#N)cc(Cl)cc2C1` (stereo partly drawn) [Compound 55, 3-chloro-6-[(2R,4S)-4-{[4-(2-hydroxyethanesulfonyl)phenoxy]methyl}-2-methylpyrrolidin-1-yl]-5,6,7,8-tetrahydronaphthalene-1-carbonitrile] are 876 nM and 240 nM.
On to `C[C@@H]1C[C@H](COc2ccc(S(C)(=O)=O)cc2)CN1CC(CO)c1cc(Cl)cc(C#N)c1` (single isomer, unassigned) [Compound 129, 3-chloro-5-[(2R or 2S)-1-hydroxy-3-[(2R,4S)-4-[(4-methanesulfonylphenoxy)methyl]-2-methylpyrrolidin-1-yl]propan-2-yl]benzonitrile], for which, at APOL1 G2 [1], the AC50 was determined as 4250 nM. In addition, the EC50 at APOL1 G2 [2] was 2140 nM.
Turning to `CC(Cc1cc(Cl)cc(C#N)c1)N1C[C@@H](COc2ccc(S(C)(=O)=O)cc2)C[C@H]1C` (single isomer, unassigned) [Compound 10, 3-chloro-5-[(2S or 2R)-2-[(2R,4S)-4-[(4-methanesulfonylphenoxy)methyl]-2-methylpyrrolidin-1-yl]propyl]benzonitrile], the concentration at half-maximal activity (AC50) on APOL1 G2 [1] was 1020 nM. Besides, the EC50 on APOL1 G2 [2] was 744 nM.
As to `C[C@@H]1C[C@H](COc2ccc(S(=O)(=O)CCCS(C)(=O)=O)cc2)CN1C1CCc2c(C#N)cccc2C1` (single isomer, unassigned) [Compound 41, (6S or 6R)-6-[(2R,4S)-4-{[4-(3-methanesulfonylpropanesulfonyl)phenoxy]methyl}-2-methylpyrrolidin-1-yl]-5,6,7,8-tetrahydronaphthalene-1-carbonitrile], the AC50 at APOL1 G2 [1] turned out to be 1180 nM. The EC50 on APOL1 G2 [2] amounted to 62.8 nM.
In the same order, the values of `C[C@@H]1CN(CCc2cc(Cl)cc(C#N)c2)C[C@H]1COc1ccc(S(=O)(=O)C2(C)COC2)cc1` [Compound 13, 3-chloro-5-{2-[(3S,4S)-3-methyl-4-({4-[(3-methyloxetan-3-yl)sulfonyl]phenoxy}methyl)pyrrolidin-1-yl]ethyl}benzonitrile] are 290 nM and 41.4 nM.
Taken in the same sequence, the figures for `CS(=O)(=O)c1ccc(OC[C@@H]2CCCN(C3CCc4ccc(Cl)cc4C3)C2)cc1` (single isomer, unassigned) [Compound 133, (3R)-1-[(2R or 2S)-7-chloro-1,2,3,4-tetrahydronaphthalen-2-yl]-3-[(4-methanesulfonylphenoxy)methyl]piperidine] were 1150 nM and 1910 nM.

The AC50 is the midpoint of the concentration-response curve, whichever way the signal moves. Broadly, the EC50 is the midpoint of the concentration-response curve.
